Measured values from US9790218B2, “Small molecule activators of calcium-activated chloride channels and methods of use” (The Regents of the University of California, priority 2011, dated 2017).

Target: T1, TMEM16A (Homo sapiens, UniProt Q5XXA6, DEL476-501)
T1 construct: expressed in transfected cells
T1 sequence (Q5XXA6 with tags, fused parts or gaps isoform Q5XXA6-5 DEL539-564): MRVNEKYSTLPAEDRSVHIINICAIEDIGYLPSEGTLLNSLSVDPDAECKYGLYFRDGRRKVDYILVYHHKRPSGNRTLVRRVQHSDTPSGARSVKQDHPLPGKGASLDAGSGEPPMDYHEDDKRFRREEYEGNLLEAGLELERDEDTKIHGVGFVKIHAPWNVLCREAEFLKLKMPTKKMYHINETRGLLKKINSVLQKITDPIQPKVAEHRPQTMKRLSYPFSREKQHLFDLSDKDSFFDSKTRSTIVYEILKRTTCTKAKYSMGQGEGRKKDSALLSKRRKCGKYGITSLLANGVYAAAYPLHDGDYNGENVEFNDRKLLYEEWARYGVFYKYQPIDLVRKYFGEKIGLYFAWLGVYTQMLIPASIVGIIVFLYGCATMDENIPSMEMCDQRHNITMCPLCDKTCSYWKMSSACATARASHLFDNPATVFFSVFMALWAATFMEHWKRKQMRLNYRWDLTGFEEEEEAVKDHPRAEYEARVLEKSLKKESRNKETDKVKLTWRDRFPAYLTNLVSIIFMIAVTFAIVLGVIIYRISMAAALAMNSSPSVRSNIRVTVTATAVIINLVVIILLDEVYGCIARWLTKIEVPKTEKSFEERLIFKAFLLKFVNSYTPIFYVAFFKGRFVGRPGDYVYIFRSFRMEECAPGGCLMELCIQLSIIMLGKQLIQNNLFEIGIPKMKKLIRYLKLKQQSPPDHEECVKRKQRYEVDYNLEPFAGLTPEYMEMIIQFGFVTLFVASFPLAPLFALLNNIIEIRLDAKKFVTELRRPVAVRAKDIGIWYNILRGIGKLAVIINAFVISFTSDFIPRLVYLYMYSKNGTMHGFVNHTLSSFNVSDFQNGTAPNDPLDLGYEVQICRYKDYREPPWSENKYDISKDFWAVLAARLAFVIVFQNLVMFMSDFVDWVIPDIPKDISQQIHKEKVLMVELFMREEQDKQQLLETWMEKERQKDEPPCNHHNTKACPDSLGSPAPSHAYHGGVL
Test: Fluorescence plate reader assay of TMEM16A-mediated I^− influx (YFP halide sensor)
Type: cell-based
Description: FRT cells were stably transfected with human TMEM16A (TMEM16A(abc), cDNA provided by Dr. Luis Galietta, Gaslini Institute, Genoa, Italy) and the halide sensor YFP-H148Q/1152L/F46L. Cells were plated in 96-well black-walled microplates (Corning Inc., Corning, N.Y.) at a density of 20,000 cells per well in Coon's modified F12 medium supplemented with 5% fetal calf serum, 2 mM L-glutamine, 100 U/mL penicillin and 100 μg/mL streptomycin. The human submandibular cell line A253 (ATCC HTB 41) was cultured in complete McCoy's 5A medium supplemented with 10% fetal bovine serum, 100 U/mL penicillin and 100 μg/mL streptomycin.
TMEM16A activators were identified from screening of ˜110,000 synthetic drug-like compounds, purified natural products and approved/investigational drugs. The cell-based screen employs FRT cells coexpressing human TMEM16A and the I^−-sensing yellow fluorescent protein YFP-H148Q/1152L/F46L. FRT cells were chosen because of their low basal I^− and Cl^− transport, rapid growth on uncoated plastic, strong stable expression of transfected proteins, and formation of tight junctions for measurements of transepithelial short-circuit current (Ma et al., supra).
High-throughput screening was done using an automated screening platform (Beckman) equipped with FluoStar fluorescence plate readers (BMG Lab Technologies, Durham, N.C.) as described (Ma et al., supra). Each well of a 96-well plate was washed 3 times with PBS (200 μL/wash), leaving 50 μL PBS. Test compounds (0.5 μL) were added to each well at […]. After 10 min, 96-well plates were transferred to a plate reader for fluorescence assay. Each well was assayed individually for TMEM16A-mediated I^− influx by recording fluorescence continuously (400 ms per point) for 2 s (baseline), then 50 μL of a 140 mM I^− solution was added. The initial rate of I^− influx was computed from fluorescence data by non-linear regression.
As diagrammed in FIG. 1A, test compounds at 25 μM final concentration were added 10 min prior to I^− addition. The 10 min incubation was chosen to allow for compound transport into cytoplasm and to minimize false positives from compounds that elevate cytoplasmic Ca^2+ transiently. Fluorescence from individual wells of 96-well plates was measured just prior to and for 6 s after I^− addition for computation of initial I^− influx rate.

`O=C(Nc1ccc(Br)cc1)c1cccc(-n2cnnn2)c1` [Fact, N-(4-bromophenyl)-3-(1H-tetrazol-1-yl)benzamide] was tested, and the EC50 was 37 µM and the “TMEM16A conductance, F class SAR” value (synthesized F class analogs) was “increased TMEM16A conductance”.
